From patent publication US7951788B2, “Method of treating cancer and other conditions or disease states using L-cytosine nucleoside analogs” (Yale University, priority 2005, dated 2011)

How the values were obtained:
colon 38 mouse tumor = experiment: Experiment 1: growth of colon 38 tumor implanted in the flank of mice, drugs alone and combined with 5-FU/leucovorin; type: in vivo; conditions: FIG. 1; for effect on the anti-cancer activity of 5-FU/LV: combination with 5FU/LV 150 mg/kg each i.p. once on day one, nucleoside p.o. b.i.d. for 5 days (3TC, FTC 100 mg/kg; LFD4C 20 mg/kg); for growth of colon 38 mouse tumor (tumor volume as % of Day 1): drug alone; for growth of colon 38 mouse tumor (tumor volume as % of Day 1) / duration of the effect on colon 38 tumor growth: immunocompetent mice, p.o. b.i.d. for 5 days, 3TC and FTC 100 mg/kg, LFD4C 20 mg/kg
Procedure: (§1) In general, the following protocol was used to implant mice with tumor cell lines and to test drugs for the anti-cancer effect.
(§2) This tumor is passed from a solid tumor growing in mice. Several grams (assuming a gram per ml) are pressed through a sterile screen and suspended in a tissue culture media without phenol red or fetal calf serum (a balanced salt solution) at 2 ml/gram of tumor. Then 0.1 ml of this tumor suspension is implanted into the flank of the mouse. Ten days to two weeks after implantation (when the tumors could be measured with a caliper), unless otherwise indicated, the drug therapy was initiated.
(§3) In general, drugs are delivered according to the following schedule. Every day the mice are weighed to deter the amount to be injected and as an index of toxicity.
(§4) The Tumor Volume is calculated from the measurements by the formula: length (mm)×width (mm)×width (mm)×Π/6 as a % of Day 1.
This experiment was designed to determine the effect of 3TC, FTC or LFD4C alone and in combination with 5-Fluorouracil with leucovorin rescue on the growth of mouse tumor (colon 38) in immuno-competent mice. The drugs were administered to the mice according to the following schedule:
5FU/LV—150 mg/kg each i.p. once on day one
3TC—100 mg/kg p.o. b.i.d. for 5 days
FTC—100 mg/kg p.o. bid for 5 days
LFD4C—20 mg/kg p.o. b.i.d. for 5 days
Combination groups received both treatments as per above schedules.
In FIG. 1, the following legend applies:
3TC (100 mg/kg) p.o.b.i.d.×5 days;
FTC (100 mg/kg) p.o.b.i.d.×5 days;
LFd4C (20 mg/kg) p.o.b.i.d.×5 days;
Combination groups received both treatments as per above.

colon 38 = experiment: Experiment 2: enhancement of the anti-cancer effect of oxaliplatin on colon 38 growth in mice; type: in vivo, C57BL6 female mice; conditions: combination with oxaliplatin 10 mg/kg i.p. once on day 1, FIG. 2; for enhancement of the anti-tumor effect of oxaliplatin on colon 38: nucleoside p.o. b.i.d. days 1-5 (3TC, FTC 100 mg/kg; LFd4C 15 mg/kg per legend); for duration of the enhancing effect with oxaliplatin: nucleoside p.o. b.i.d. days 1-5
Procedure: as §1, §2, §3, §4
Experiment 2 tested the effects of 3TC, FTC and LFD4C (same schedule as above) on the enhancement of anti-cancer drug effect of oxaliplatin (10 mg/kg i.p., once on day 1) on colon 38 growth in C57BL6 female mice. […].
In FIG. 2, the following legend applies:
3TC and FTC (100 mg/kg) p.o.b.i.d. day 1-5;
LFd4C (15 mg/kg) p.o.b.i.d. days 1-5;
Oxaplatin (10 mg/kg) i.p. once on day 1;
Combination groups received both treatments as described above.

Compound	effect on the anti-cancer activity of 5-FU/LV (colon 38 mouse tumor)	growth of colon 38 mouse tumor (tumor volume as % of Day 1) (colon 38 mouse tumor)	duration of the effect on colon 38 tumor growth (colon 38 mouse tumor)	enhancement of the anti-tumor effect of oxaliplatin on colon 38 (colon 38)	duration of the enhancing effect with oxaliplatin (colon 38)
Nc1nc(=O)n([C@@H]2C=C[C@H](CO)O2)cc1F [LFD4C, Elvucitabine]	significant (additive or synergistic)	slows down the growth	lasted well past the 5 day therapy	clearly enhanced	lasts well after the treatment is stopped
Nc1nc(=O)n([C@@H]2CS[C@H](CO)O2)cc1F [FTC, emtricitabine]	significant (additive or synergistic)	slows down the growth	lasted well past the 5 day therapy	clearly enhanced	lasts well after the treatment is stopped
